Experimental findings from patent US20240207192A1, “PHARMACEUTICAL COMPOSITIONS CONTAINING A PIPERIDINYL-METHYL-PURINE AMINE AND THEIR USE IN TREATING DISEASES AND CONDITIONS” (K36 THERAPEUTICS, INC., priority 2022, published 2024) are described below.

Counter-ions that a name gives are not always drawn.

What all share (assay type): physicochemical
The nature of series [1]: Storage stability of Formulations 5, 6 and 7, related substances by HPLC. Here is the method:
An aliquot of each of Formulation 5, 6, and 7 was subjected to stability testing. In particular, an amount of each formulation sufficient to provide 11.4 mg of Compound 1 was transferred to a glass vial bottle and then the bottle was capped. The glass vials were stored at (a) 40° C./NMT 25% relative humidity or (b) 40° C./75% relative humidity. Samples were analyzed by HPLC to determine the amount of related substances in the formulation.
(§1) Table 2 presents results for samples stored at 40° C./25% relative humidity. Table 3 presents results for samples stored at 40° C./75% relative humidity.

The nature of series [2]: Storage stability of Formulations 1 to 4, related substances by HPLC. The following applies: 40° C./75% relative humidity, capped glass vials. Here is the method:
An aliquot of each of Formulation 1, 2, 3, and 4 was subjected to stability testing. In particular, an amount of each formulation sufficient to provide 11.4 mg of Compound 1 was transferred to glass vials and then the vials were capped. The glass vials were stored at 40° C./75% relative humidity for three to six weeks. Samples were analyzed by HPLC to determine the amount of related substances in the formulation.

Series [3] can be described thus: Storage stability of Formulations 8, 9 and 10, related substances. The protocol: An aliquot of each of Formulation 8, 9, and 10 was subjected to stability testing. In particular, an amount of each formulation sufficient to provide 14.3 mg of Compound 2 was transferred to a glass vial and then the vial was capped. The glass vials were stored at (a) 40° C./NMT 25% relative humidity or (b) 40° C./75% relative humidity. Samples were analyzed to determine the amount of related substances in the formulation.
as §1

[4] abbreviates: 40° C./25% (NMT 25%) relative humidity.

Turning to `COc1cc(F)c(-c2cc(Cn3cnc4c(N)ncnc43)c(N3CCC[C@](N)([C@H](O)C(F)F)C3)cn2)cc1F` [Compound 1, (S)-1-((R)-3-amino-1-(4-((6-amino-9H-purin-9-yl)methyl)-6-(2,5-difluoro-4-methoxyphenyl)pyridin-3-yl)piperidin-3-yl)-2,2-difluoroethan-1-ol D-Tartrate], the “Percentage of Related Substances in the Formulation (% as determined by HPLC), 2 Weeks Storage” value in series [1] (setting [4]) turned out to be 0.56%; in series [1] (40° C./75% relative humidity) it was 0.57%. For the same compound, in series [1] (40° C./25% (NMT 25%) relative humidity, 4 weeks), the “Percentage of Related Substances in the Formulation (% as determined by HPLC), 4 Weeks Storage” value was 0.57%. The “Percentage of Related Substances in the Formulation (% as determined by HPLC), 6 Weeks Storage” value in series [1] (40° C./75% relative humidity, 6 weeks) was found to be 0.57%; in series [2] (6 weeks), 0.41%. In addition, the “Percentage of Related Substances in the Formulation (% as Determined by HPLC), 3 Weeks Storage” value in series [2] (3 weeks) is 0.42%.
As to `COc1cc(F)c(-c2cc(Cn3cnc4c(N)ncnc43)c(N3CCC[C@](N)([C@H](O)C(F)F)C3)cn2)cc1F` [Compound 2, (S)-1-((R)-3-amino-1-(4-((6-amino-9H-purin-9-yl)methyl)-6-(2,5-difluoro-4-methoxyphenyl)pyridin-3-yl)piperidin-3-yl)-2,2-difluoroethan-1-ol Fumarate], in series [3] (setting [4]), the “Percentage of Related Substances in the Formulation (% as determined by HPLC), 2 Weeks Storage” value is on record as 0.55%; the “Percentage of Related Substances in the Formulation (% as determined by HPLC), 4 Weeks Storage” value is 0.55%; the “Percentage of Related Substances in the Formulation (% as determined by HPLC), 6 Weeks Storage” value was determined as 0.56%. In addition, in series [3] (40° C./75% relative humidity), the “Percentage of Related Substances in the Formulation (% as determined by HPLC), 2 Weeks Storage” value was 0.55%; the “Percentage of Related Substances in the Formulation (% as determined by HPLC), 4 Weeks Storage” value is reported as 0.56%; the “Percentage of Related Substances in the Formulation (% as determined by HPLC), 6 Weeks Storage” value turned out to be 0.55%.
